#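 Step 1: Grow cells in 96-well plates. Step 2: Expose to compound for 48 hours at 5 concentrations. Step 3: Interpolate endpoints linearly; if unreached, use highest concentration. GI50 = concentration required for 50% inhibition of growth.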 Active and inactive are the calls of the source. Cut-off read from the data, not from the text of the source: active = GI50 up to about 1.1 µM and inactive = higher.
# How the values were obtained:
# Assay in all cases: inhibition of tumour cell growth, NCI panel, 48 h
# K562 = test system: K562
# SK-MEL-2 = test system: SK-MEL-2
# HCT-15 = test system: HCT-15
# NCI-H23 = test system: NCI-H23
# SK-MEL-5 = test system: SK-MEL-5
# KM12 = test system: KM12
# SF-295 = test system: SF-295
# UACC-62 = test system: UACC-62
# NCI-H460 = test system: NCI-H460
# SK-MEL-28 = test system: SK-MEL-28
# IGROV-1 = test system: IGROV-1
# U-251 = test system: U-251
# CCRF-CEM = test system: CCRF-CEM
# UACC-257 = test system: UACC-257
# UO-31 = test system: UO-31
# SR = test system: SR
SMILES,GI50 (K562),GI50 (SK-MEL-2),GI50 (HCT-15),GI50 (NCI-H23),GI50 (SK-MEL-5),GI50 (KM12),GI50 (SF-295),GI50 (UACC-62),GI50 (NCI-H460),GI50 (SK-MEL-28),GI50 (IGROV-1),GI50 (U-251),GI50 (CCRF-CEM),GI50 (UACC-257),GI50 (UO-31),GI50 (SR)
O=c1cc(/C=C/c2ccccc2)c2ccc(O/C(=C\c3ccccc3)c3nc4ccccc4c(=O)o3)cc2o1,10.8 µM (inactive),25.6 µM (inactive),30.3 µM,10.6 µM (inactive),16.3 µM (inactive),15.7 µM (inactive),26.7 µM (inactive),24.7 µM (inactive),23.3 µM (inactive),13.8 µM (inactive),30.1 µM (inactive),23 µM (inactive),16.9 µM (inactive),28.9 µM (inactive),–,–
CN1C(=O)CC2(C)c3cc(C=O)ccc3N(C)C12 (stereo not given),> 100 µM (inactive),> 100 µM (inactive),> 100 µM,> 100 µM (inactive),> 100 µM (inactive),> 100 µM (inactive),> 100 µM (inactive),> 100 µM (inactive),> 100 µM (inactive),> 100 µM (inactive),> 100 µM (inactive),> 100 µM (inactive),> 100 µM (inactive),> 100 µM (inactive),> 100 µM (inactive),–
COC(=O)C1CCC(N2C(=O)CCC2C(=O)OC)=N1 (stereo not given),> 100 µM (inactive),> 100 µM (inactive),> 100 µM,> 100 µM (inactive),–,> 100 µM (inactive),> 100 µM (inactive),> 100 µM (inactive),> 100 µM (inactive),> 100 µM (inactive),> 100 µM (inactive),> 100 µM (inactive),> 100 µM (inactive),> 100 µM (inactive),> 100 µM (inactive),–
COC(=O)C(=O)C(C(=O)C(=O)Nc1ccc(Cl)cc1C)c1nc2ccc(C(=O)c3ccccc3)cc2nc1O (stereo not given),29 µM (inactive),> 100 µM (inactive),> 100 µM,> 100 µM (inactive),–,63 µM (inactive),> 100 µM (inactive),61.9 µM (inactive),> 100 µM (inactive),–,> 100 µM (inactive),> 100 µM (inactive),50.6 µM (inactive),97.9 µM (inactive),49.1 µM (inactive),43.5 µM (inactive)
CCOC(=O)NC(=O)c1cn(CCCCCOC(=O)NCCCCCCNC(=O)OCCCCCn2cc(C(=O)NC(=O)OCC)c(=O)[nH]c2=O)c(=O)[nH]c1=O,> 100 µM (inactive),> 100 µM (inactive),> 100 µM,–,> 100 µM (inactive),> 100 µM (inactive),> 100 µM (inactive),> 100 µM (inactive),> 100 µM (inactive),> 100 µM (inactive),> 100 µM (inactive),> 100 µM (inactive),> 100 µM (inactive),> 100 µM (inactive),> 100 µM (inactive),–
CC(=O)c1ccc(NC(=O)C(=O)CC(=O)c2sc(-n3nc(-c4ccccc4)cc3-c3ccccc3)nc2C)cc1,> 100 µM (inactive),> 100 µM (inactive),> 100 µM,> 100 µM (inactive),–,> 100 µM (inactive),> 100 µM (inactive),> 100 µM (inactive),> 100 µM (inactive),–,> 100 µM (inactive),> 100 µM (inactive),> 100 µM (inactive),> 100 µM (inactive),> 100 µM (inactive),> 100 µM (inactive)
CC(=O)OCC1OC(n2c(-c3ccc(C)cc3)cc(-c3ccccc3)c(C#N)c2=O)C(OC(C)=O)C(OC(C)=O)C1OC(C)=O (stereo not given),> 100 µM (inactive),> 100 µM (inactive),> 100 µM,60.7 µM (inactive),> 100 µM (inactive),> 100 µM (inactive),–,> 100 µM (inactive),> 100 µM (inactive),> 100 µM (inactive),> 100 µM (inactive),> 100 µM (inactive),> 100 µM (inactive),> 100 µM (inactive),> 100 µM (inactive),–
O=C1c2ccccc2C(=O)C2C1C1C(=O)c3ccccc3C(=O)C21 (stereo not given),> 100 µM (inactive),> 100 µM (inactive),8.69 µM,99.1 µM (inactive),32.6 µM (inactive),49.7 µM (inactive),> 100 µM (inactive),> 100 µM (inactive),> 100 µM (inactive),> 100 µM (inactive),79.1 µM (inactive),> 100 µM (inactive),> 100 µM (inactive),> 100 µM (inactive),> 100 µM (inactive),–
Cc1ccc(S(=O)(=O)NNC(=O)c2sc(-c3nc(C)c(C(=O)NNS(=O)(=O)c4ccc(C)cc4)s3)nc2C)cc1,45.9 µM (inactive),> 100 µM (inactive),47.1 µM,> 100 µM (inactive),71.1 µM (inactive),> 100 µM (inactive),> 100 µM (inactive),72.3 µM (inactive),> 100 µM (inactive),> 100 µM (inactive),> 100 µM (inactive),> 100 µM (inactive),45.6 µM (inactive),> 100 µM (inactive),28.8 µM (inactive),–
Cc1cc2c(c(C(N)=O)c1C)-c1cccc(F)c1C2=O,> 100 µM (inactive),> 100 µM (inactive),> 100 µM,> 100 µM (inactive),> 100 µM (inactive),> 100 µM (inactive),> 100 µM (inactive),79.6 µM (inactive),> 100 µM (inactive),> 100 µM (inactive),> 100 µM (inactive),> 100 µM (inactive),> 100 µM (inactive),> 100 µM (inactive),40.9 µM (inactive),–
O=C(N/C(=C\c1ccccc1Cl)c1nc2ccccc2[nH]1)c1ccccc1,24.5 µM (inactive),23.5 µM (inactive),25.8 µM,25.1 µM (inactive),17.4 µM (inactive),32.5 µM (inactive),17 µM (inactive),21.4 µM (inactive),–,40.9 µM (inactive),25.1 µM (inactive),27 µM (inactive),30.4 µM (inactive),–,11.2 µM (inactive),23.3 µM (inactive)
Brc1ccc2c(c1)C1C(CO2)C(c2ccccc2)=NN1c1ccccc1 (stereo not given),78.9 µM (inactive),> 100 µM (inactive),–,> 100 µM (inactive),–,> 100 µM (inactive),> 100 µM (inactive),–,> 100 µM (inactive),> 100 µM (inactive),> 100 µM (inactive),> 100 µM (inactive),> 100 µM (inactive),> 100 µM (inactive),> 100 µM (inactive),–
Cc1nc2nn(Cc3ccccc3)cc2c(=O)o1,> 100 µM (inactive),> 100 µM (inactive),> 100 µM,–,> 100 µM (inactive),> 100 µM (inactive),> 100 µM (inactive),> 100 µM (inactive),> 100 µM (inactive),–,> 100 µM (inactive),> 100 µM (inactive),> 100 µM (inactive),> 100 µM (inactive),> 100 µM (inactive),–
CC1c2c(Cl)nc3ccccc3c2Oc2c1c(Cl)nc1ccccc21,46.8 µM (inactive),64.6 µM (inactive),–,> 100 µM (inactive),30.3 µM (inactive),> 100 µM (inactive),67.3 µM (inactive),–,> 100 µM (inactive),> 100 µM (inactive),> 100 µM (inactive),61.9 µM (inactive),> 100 µM (inactive),> 100 µM (inactive),65 µM (inactive),–
C[C@]12CC[C@H](OC3CCCCO3)CC1=CC[C@@H]1C2CC[C@]2(C)/C(=N/O)CCC12 (stereo not given in full),14.4 µM (inactive),36.8 µM (inactive),14.5 µM,19.9 µM (inactive),88.9 µM (inactive),15.6 µM (inactive),15.1 µM (inactive),42.7 µM (inactive),18.8 µM (inactive),21.3 µM (inactive),> 100 µM (inactive),19.6 µM (inactive),–,30.3 µM (inactive),39.1 µM (inactive),–
O=C(N/N=C/c1ccccc1O)N/N=C/c1ccccc1O,> 100 µM (inactive),> 100 µM (inactive),> 100 µM,> 100 µM (inactive),–,–,> 100 µM (inactive),> 100 µM (inactive),> 100 µM (inactive),> 100 µM (inactive),> 100 µM (inactive),> 100 µM (inactive),> 100 µM (inactive),> 100 µM (inactive),> 100 µM (inactive),–
OC12c3ccccc3C3CCC4(OCCO4)C3C1c1ccccc12 (stereo not given),49.8 µM (inactive),> 100 µM (inactive),> 100 µM,> 100 µM (inactive),> 100 µM (inactive),> 100 µM (inactive),> 100 µM (inactive),> 100 µM (inactive),> 100 µM (inactive),> 100 µM (inactive),61.8 µM (inactive),> 100 µM (inactive),> 100 µM (inactive),71.9 µM (inactive),> 100 µM (inactive),–
O=C(NO)c1ccc(O)c(O)c1,26.5 µM (inactive),–,98.4 µM,> 100 µM (inactive),> 100 µM (inactive),> 100 µM (inactive),29.5 µM (inactive),> 100 µM (inactive),70.3 µM (inactive),> 100 µM (inactive),> 100 µM (inactive),> 100 µM (inactive),42.1 µM (inactive),> 100 µM (inactive),> 100 µM (inactive),36.4 µM (inactive)
O=c1[nH]c2c(O)cccc2c2cc3c(c(O)c12)OCO3 [NARCIPRIMINE],17.5 µM (inactive),–,22.5 µM,–,17.1 µM (inactive),16.7 µM (inactive),20.1 µM (inactive),18.3 µM (inactive),14.6 µM (inactive),–,26.1 µM (inactive),16 µM (inactive),10 µM (inactive),19.7 µM (inactive),17.1 µM (inactive),–
